Data reported in publication PMC6152180, “Design, Synthesis and Evaluation of Hesperetin Derivatives as Potential Multifunctional Anti-Alzheimer Agents” (Molecules : A Journal of Synthetic Chemistry and Natural …, 2017).
Where two headings read alike, the source gives them in different places.

How the values were obtained:
[1] = in vitro; conditions: human
Experimental: Thus, we used the methylthiazolyl tetrazolium (MTT) method [30] to perform a neurocyte (SH-SY5Y) toxicity test in vitro.
The SH-SY5Y cell line was seeded on 96-well plates at a density of 10^4 cells/well. […] Subsequently, 10 μL of 5 mg/mL MTT solution was added to each well and further incubated for 4 h at 37 °C. The solution was carefully removed, and each well was treated with DMSO (200 μL for each well). The optical density of the wells was then read on the microplate reader at 570 nm. All the tested compounds were performed in triplicate.

[2] = Oxygen radical absorbance capacity-fluorescein (ORAC-FL) assay; conditions: Trolox equivalents, Trolox = 1
Experimental: Vitamin E analogue Trolox was used as the standard, and the results were expressed as Trolox equivalents.
The anti-oxidation activity was tested by using the oxygen radical absorbance capacity-fluorescein (ORAC-FL) assay [25, 32]. All the ORAC-assays measure antioxidant scavenging activity against peroxyl radical induced by 2,2′-azobis (2-amidinopropane) dihydrochloride (AAPH) at 37 °C.
The reaction was conducted with 75 mM phosphate buffer (pH 7.4) and the final reaction mixture was 200 μL. Fluorescein (120 μL, 300 nM final concentration) and antioxidant (20 μL) were placed in the wells of a black 96-well plate, and the mixture was incubated for 15 min at 37 °C. Then AAPH solution (60 μL, 12 mM final concentration) was added rapidly. […] 6-hydroxy-2,5,7,8-tetramethylchroman-2-carboxylic acid (Trolox) was used as a standard (1–5 μM, final concentration). A blank (FL + AAPH) using phosphate buffer instead of antioxidant and Trolox calibration were carried out in each assay. The samples were measured at different concentrations (1–5 μM), and at least three independent assays were performed for each sample. Fluorescence measurements were normalized based on the curve of the blank (without antioxidant). Antioxidant curves (fluorescence versus time) were normalized to the curve of the blank in the same assay, and then the area under the fluorescence decay curve (AUC) was calculated. The net AUC of a sample was obtained by subtracting the AUC from the blank. ORAC-FL values were expressed as Trolox equivalents by using the standard curve calculated for each sample, where the ORAC-FL value of Trolox was taken as one, indicating the antioxidant potency of the test compounds.

[3] = target: T1, BuChE (Equus caballus, UniProt P81908); assay: biochemical; conditions: BuChE from equine serum; means ± SEM of three experiments; read-out: BuChE Inhibition, (IC50)
T1 construct: purchased Aladdin B128570-2KU; host or cells: equine serum
T1 sequence (P81908 whole entry): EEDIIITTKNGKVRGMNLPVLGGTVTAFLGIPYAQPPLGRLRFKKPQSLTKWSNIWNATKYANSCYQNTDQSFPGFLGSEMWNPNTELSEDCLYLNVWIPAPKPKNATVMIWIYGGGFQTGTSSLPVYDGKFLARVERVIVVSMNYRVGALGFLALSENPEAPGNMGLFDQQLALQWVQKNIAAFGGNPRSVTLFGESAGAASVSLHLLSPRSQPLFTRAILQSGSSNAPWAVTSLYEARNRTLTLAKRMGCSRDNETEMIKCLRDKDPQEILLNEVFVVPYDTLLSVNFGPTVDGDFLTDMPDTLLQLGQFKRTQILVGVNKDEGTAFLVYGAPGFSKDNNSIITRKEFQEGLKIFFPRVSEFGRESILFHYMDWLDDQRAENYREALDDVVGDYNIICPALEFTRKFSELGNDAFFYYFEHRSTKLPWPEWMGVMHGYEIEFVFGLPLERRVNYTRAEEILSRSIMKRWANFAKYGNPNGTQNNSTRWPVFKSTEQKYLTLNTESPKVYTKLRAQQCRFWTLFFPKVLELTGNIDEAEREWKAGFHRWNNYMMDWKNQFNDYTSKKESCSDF
Experimental: (§1) Acetylcholinesterase (AChE, E.C. 3.1.1.7, obtained from electric eel) was purchased from Sigma-Aldrich (St. Louis, MO, USA, product code: C3389-2KU). Butyrylcholinesterase (BuChE, E.C. 3.1.1.8, obtained from equine serum) was purchased from Aladdin (Shanghai, China, product code: B128570-2KU). […] The compounds were dissolved in a minimum volume of DMSO (1%) and then diluted in 0.1 M KH2PO4/K2HPO4 buffer (pH 8.0) to provide a final concentration range.
(§2) Enzyme solutions were prepared to give 2.0 units/ mL in 2 mL aliquots. The assay medium contained phosphate buffer, pH 8.0 (1 mL), 50 μL of 0.01 M DTNB, 10 μL of enzyme, and 50 μL of 0.01 M substrate (ATC). The substrate was added to the assay medium containing enzyme, buffer, and DTNB with inhibitor after 15 min of incubation time. […] In vitro BuChE assay used the similar method described above [31]. Each concentration was assayed in triplicate.

[4] = target: Aβ (1–42) (Homo sapiens, UniProt P05067); assay: Inhibition of self-mediated Aβ (1–42) aggregation (thioflavin T fluorescence assay); conditions: for inhibition at 20 µM: read-out: Aβ (1–42) aggregation inhibition rate
Chain of Aβ (1–42) (P05067 672-713): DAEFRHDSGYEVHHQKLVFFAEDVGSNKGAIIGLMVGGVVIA
Experimental: A thioflavin T based fluorometric assay was performed to investigate the self-mediated Aβ (1–42) aggregation [33]. Aβ (1–42) peptide (Sigma-Aldrich) was dissolved in phosphate buffer (0.01 M, pH 7.40) to obtain a 20 μM solution. Compounds were firstly dissolved in DMSO to obtain a 10 mM solution. Inhibitors and the final concentration of Aβ (1–42) were 20 μM. After incubated in 37 °C for 48 h, thioflavin-T (5 μM in 50 mM glycine-NaOH buffer, pH 8.00) was added. […] Each inhibitor was run in triplicate. The fluorescence intensities were recorded, and the percent inhibition on aggregation was calculated by the following expression: (1 − IFi/IFc) × 100% in which IFi and IFc were the fluorescence intensities obtained for absorbance in the presence and absence of inhibitors, respectively, after subtracting the fluorescence of respective blanks.

[5] = target: T2, AChE (Electrophorus electricus, UniProt O42275); assay: biochemical; conditions: for IC50: AChE from electric eel, means ± SEM of three experiments, read-out: AchE Inhibition, (IC50); for Selective Index: Selectivity Index = IC50 (BuChE)/IC50 (AChE)
T2 construct: purchased Sigma-Aldrich C3389-2KU
T2 sequence (O42275 24-633): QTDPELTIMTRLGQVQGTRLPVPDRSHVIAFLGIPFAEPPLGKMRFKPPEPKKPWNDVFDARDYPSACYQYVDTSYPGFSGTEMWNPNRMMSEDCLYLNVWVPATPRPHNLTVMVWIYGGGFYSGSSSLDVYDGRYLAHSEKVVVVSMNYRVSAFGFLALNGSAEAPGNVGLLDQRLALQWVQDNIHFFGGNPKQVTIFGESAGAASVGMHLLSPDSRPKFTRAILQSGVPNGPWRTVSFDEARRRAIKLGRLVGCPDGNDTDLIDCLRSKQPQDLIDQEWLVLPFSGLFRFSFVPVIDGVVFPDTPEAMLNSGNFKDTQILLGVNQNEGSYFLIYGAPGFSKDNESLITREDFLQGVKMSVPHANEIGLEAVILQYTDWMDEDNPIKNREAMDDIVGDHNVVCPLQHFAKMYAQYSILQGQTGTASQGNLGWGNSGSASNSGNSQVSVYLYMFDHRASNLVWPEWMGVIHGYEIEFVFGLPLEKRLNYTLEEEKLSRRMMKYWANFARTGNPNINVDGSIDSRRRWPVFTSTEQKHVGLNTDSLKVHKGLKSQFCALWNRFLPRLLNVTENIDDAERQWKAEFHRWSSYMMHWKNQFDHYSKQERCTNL
Experimental: as §1, §2

[6] = target: T2, AChE; assay: Kinetic characterization of AChE inhibition (Lineweaver-Burk plot); type: biochemical; conditions: Lineweaver–Burk plots
Experimental: Three different concentrations (2, 4 and 8 nM) of substrate were mixed in the 1 mL 0.1 M KH2PO4/K2HPO4 buffer (pH 8.0), containing 10 μL AChE, 50 μL of DTNB, and 50 μL substrate. […] A parallel control with no inhibitor in the mixture, allowed adjusting activities to be measured at various times.

[7] = test system: PC12 cells; assay: Protective effect against H2O2-induced cell death in PC12 neurons (MTT); type: cell-based
Experimental: The neuroprotective activity of compound 4f against oxidative stress-induced cell death in PC12 cells was evaluated. Compound 4f was evaluated at concentrations of 1, 2.5 and 5 µM, and quercetin was used as the reference compound. […] […].
PC12 cells were cultured in DMEM media with 10% fetal calf serum (FCS, Hyclone) containing 100 units/mL penicillin and […] streptomycin under 5% CO2 at 37 °C. To produce oxidative stress, H2O2 was freshly prepared from a 30% stock solution prior to each experiment. PC12 cells were plated in cell culture plates at a density of 10^5 cells per well. In our study, 0.2 mM H2O2 were treated with PC12 cells for 24 h in the injury module, while the compound group cells were pretreated with different concentrations (1, 2.5 and 5 μM) of the compound 4f for 2 h. The control group cells were treated with the same medium without H2O2 or compound 4f. The cell viability of PC12 cells was evaluated using MTT assay. After, PC12 cells were cultured with 5 mg/mL MTT and incubated for 4 h at 37 °C. Then the cells were lysed in dimethyl sulfoxide DMSO ([…]). The absorbance was detected at 570 nm by a microplate reader (Bio-Tek). PC12 cells were cultured without 4f or H2O2 as control group and the results were expressed by percentage of control.

Structure (SMILES): COc1ccc(C2CC(=O)c3c(O)cc(OCC(=O)NCc4ccncc4)cc3O2)cc1O (stereo not shown) [Compound 4s, 2-[5-Hydroxy-2-(3-hydroxy-4-methoxyphenyl)-4-oxochroman-7-yloxy]-N-pyridin-4-ylmethylacetamide]
- viability at 48 h, 1 µM [1]: 101 ± 6.17%
- viability at 48 h, 10 µM [1]: 97.5 ± 5.36%
- viability at 48 h, 50 µM [1]: 78.7 ± 3.46%
- viability at 48 h, 100 µM [1]: 59.6 ± 3.61%
- ORAC [2]: 2.4 μM of Trolox equivalent/μMof tested compound
- IC50 [3]: 1.85 ± 0.055 µM
- inhibition at 20 µM [4]: 72%
- IC50 [5]: 0.0273 ± 0.00099 µM
- Selective Index [5]: 68

Structure (SMILES): COc1ccc(C2CC(=O)c3c(O)cc(OCC(=O)NCc4ccco4)cc3O2)cc1O (stereo not shown) [Compound 4t, N-Furan-2-ylmethyl-2-[5-hydroxy-2-(3-hydroxy-4-methoxyphenyl)-4-oxochroman-7-yloxy]acetamide]
- viability at 48 h, 1 µM [1]: 99.9 ± 4.52%
- viability at 48 h, 10 µM [1]: 97.5 ± 3.65%
- viability at 48 h, 50 µM [1]: 81.8 ± 4.06%
- viability at 48 h, 100 µM [1]: 61.2 ± 5.12%
- ORAC [2]: 2.6 μM of Trolox equivalent/μMof tested compound
- IC50 [3]: 2.35 ± 0.104 µM
- inhibition at 20 µM [4]: 70.8%
- IC50 [5]: 0.0307 ± 0.0045 µM
- Selective Index [5]: 77

Structure (SMILES): COc1ccc([C@@H]2CC(=O)c3c(O)cc(OCC(=O)NCc4ccc(C(F)(F)F)cc4)cc3O2)cc1O [Compound 4f, 2-[5-Hydroxy-2-(3-hydroxy-4-methoxyphenyl)-4-oxochroman-7-yloxy]-N-(4-trifluoro-methylbenzyl)acetamide]
- viability at 48 h, 1 µM [1]: 100 ± 4.76%
- viability at 48 h, 10 µM [1]: 95.8 ± 7.31%
- viability at 48 h, 50 µM [1]: 83.3 ± 5.44%
- viability at 48 h, 100 µM [1]: 62.3 ± 5.78%
- inhibition type against AChE [6]: mixed-type inhibition
- Ki ([6]; superscript b not defined, read-out: Ki b): 0.00467 µM
- Ki ([6]; superscript c not defined, read-out: Ki c): 0.00427 µM
- Ki ([6]; superscript d not defined, read-out: Ki d): 0.00328 µM
- protective capability compared with quercetin ([7]; 5 µM, H2O2 200 µM): slightly better protective capability than quercetin
- cytotoxicity toward the PC12 cells ([7]; 1, 2.5 and 5 µM): no cytotoxicity
- protection of PC12 neurons against H2O2-induced cell death ([7]; pretreatment at 1, 2.5 and 5 µM, H2O2 200 µM, p-value < 0.01): significantly protected the neurons against cell death
- IC50 [3]: 2.86 ± 0.045 µM
- IC50 [4]: 8.47 ± 0.44 µM
- inhibition at 20 µM [4]: 76.3%
- IC50 [5]: 0.00937 ± 0.00087 µM
- Selective Index [5]: 305
